Read-outs that look alike come from different tables or passages of the source.
System: phosphorylated fos-GHRct (fos-GHRct/Jak2 signaling)
Assay: Cell based primary screen: immune fluorescence (anti-GHR, anti-pY, anti-pJak2, anti-pSTAT5) of fos-GHRct-transfected γ2A iJak2 cells
Parameters: species or system human
Conditions: for phosphorylation of STAT5 (pSTAT5) / phosphorylation of fos-pGHRct (pY) / phosphorylation of the active site of Jak2 (p1007/1008): concentration curves, Fig S10
Procedure: Drug handling and cell-based assays are detailed in Supplementary Data 1 , automation. High-Content StratoMineR ([35]). After incubation with the compounds, the cells were fixed and the fluorescence (anti-GHR, anti-pY, anti-pJak2, anti-pSTAT5) was quantitated.
As it was unknown whether the GH/IGF1 axis is druggable, we designed a broad strategy based on our previous studies in which soluble fos-zipped GHR cytosolic tails (fos-GHRct) can serve as signaling complexes if co-expressed with Jak ([32], [39]). Fos-GHRct expressed without Jak2 is immediately degraded by the ubiquitin pathway. Phosphorylated fos-GHRct (fos-pGHRct) detaches from Jak2 and unzips. Only unzipped fos-pGHRct are protected from proteasomal degradation and accumulate in the cell. […] For 6 scenarios the signal will be decreased: (1) inhibition of Jak2 kinase activity, (2) inhibition of fos-GHRct expression, (3) inhibition of the fos-GHRct : Jak2 interaction, (4) increased degradation of fos-pGHRct, (5) increased degradation of Jak2, and (6) dephosphorylation of fos-pGHRct ([32], [39]).
Figure 1 Diagram of the primary screen. […] If fos-GHRct and Jak2 bind via FERM and box-1, Jak2 gets activated and phosphorylates itself, the dimerized fos-GHRct and STAT5b. After phosphorylation of fos-GHRct, Jak2 and STAT5, the complex dissociates. As fos-pGHRct is protease-resistant, it accumulates in the cells. Unphosphorylated fos-GHRct is rapidly degraded. Steady state levels of fos-pGHRct are lower if one of the 6 scenarios is valid. The cell-based assay was performed in γ2A cells carrying inducible Jak2 (iJak2) or binding-deficient iJak2 Y119E (as control) ( Figure 2 ). […]
1. Cell based primary screen
The assay was based on Fos-zippered GHR cytosolic tails (fos-GHRct) subsequently acting […]
Fig S1A. Immune Fluorescence staining of γ2a Fig S1B. Immune Fluorescence staining of γ2a monoclonal cell line stably transfected with an monoclonal cell line stably transfected with an inducible Jak2 WT expression construct. inducible Jak2 Y119E expression construct. aim we used a human fibroblast cell line
From this line we generated doxycycline inducible Jak2 clones, expressing either wild type Jak2 or Y119E mutant Jak2 whose FERM domain does […]
To establish a sensitive test, sufficient […]
control the system, we used fos-GHRct mutated in box-1 or the cell line expressing mutant (Y119E) Jak2. The box-1 motif is the binding site of Jak2 in GHR; mutation of this motif (all four proline into alanine) is known to reduce the binding between GHR and Jak2. In the primary screen we measured 4 different signals: fos-GHRct (anti-GHR), tyrosine phosphorylated fos-GHRct (anti-pY), tyrosine phosphorylated Jak2 (anti-pY or anti- […]
inhibition of either fos-GHRct stabilization or fos-GHRct synthesis, are considered positive.
Immunoblots are not appropriate for high throughput screening. Using fos-GHRct-transfected cells as in Fig. S3 and pY-specific primary antibodies, we developed a high throughput screening assay based on pY-fos-GHRct immune fluorescent detection in 384-well plates with automated microscopy. […]
panel). From left to right: Dapi staining to visualize nuclei, fos-GHRct staining: GHRtails are detected by […]

[1] = Homo sapiens, Figure 4, ranked according inhibitory effects on GHR signaling and/or cell proliferation, read-out: IC50
[2] = Homo sapiens, Table_2.xlsx, second analogue set, read-out: GHR INHIBITORS, BM#, IC50

IC50 [2] [nM]	Compound	IC50 [1] [nM]	phosphorylation of STAT5 (pSTAT5)	phosphorylation of fos-pGHRct (pY)	phosphorylation of the active site of Jak2 (p1007/1008)	other results
–	Cc1nc(N)nc(N)c1/C=C/C1(c2ccc(C(F)(F)F)cc2)CC1 [BM001]	20 to 30	–	–	–	EC50 (Homo sapiens, Table_2.xlsx, cell prints EC50, read-out: GHR INHIBITORS, BM#, EC50): 20 to 30 nM
50	Cc1c(-c2cccc(C#N)c2)ccc2nc(N)nc(N)c12 [BM002]	–	–	–	–	–
50	COc1cc(CN(C)c2ccc3nc(N)nc(N)c3c2)cc(OC)c1OC [BM003]	–	–	–	–	–
–	Cc1nc(N)nc(N)c1C#CC1(c2ccc(Cl)cc2)CC1 [BM004]	80	lowered	lowered	lowered	IC50 (Homo sapiens, primary screen protocol, 20 h, read-out: IC50, dose-response on pY levels (fos-GHRct, pJak2, pSTAT5)): ~200 nM; IC50, dose-response on pY levels (fos-GHRct, pJak2, pSTAT5) (primary screen protocol, 20 h): comparable to that of Ruxolitinib
–	CCOc1cccc2nc(N)nc(N)c12 [BM012]	–	lowered	lowered	lowered	IC50 (Homo sapiens, Table_1.xlsx, first analogue set, read-out: GHR INHIBITORS, BM#, (IC50)): 900 nM
–	N#CC[C@H](C1CCCC1)n1cc(-c2ncnc3[nH]ccc23)cn1 [Ruxolitinib, reference compound]	–	–	–	–	pY signal at plateau of dose-response: close to zero

Source: paper PMC9365994, “Small molecules to regulate the GH/IGF1 axis by inhibiting the growth hormone receptor synthesis” (Frontiers in Endocrinology, 2022)
